Read-outs that look alike come from different tables or passages of the source.
Legend:
[1] = Pharmacokinetic study in rats of (S)-M1 and Compound 435(S) after oral dosing (Example 37); assay type: in vivo, male Sprague-Dawley rats
Protocol: (§1) (S)-M1 and Compound 435(S) (a deuterated form of (S)-M1) were separately dissolved in saline at a concentration of 10 mg/mL. A 1:1 mixture of the two compounds was then prepared containing a final concentration of 5 mg/mL of each compound, which was used for intravenous administration. For oral administration the mixture was further diluted in saline to a final concentration of 1 mg/mL for each compound.
(§2) Three male Sprague-Dawley rats were used in each of the oral and intravenous studies. Animals were fasted overnight prior to administration of compounds. Intravenous administration was achieved by bolus injection of a single 5 mg/kg dose of the 1:1 combination into the cannulated jugular vein of the rats. Cannulation was achieved the day prior to dosing on rats that had been placed under anesthesia using ketamine (IM 30 mg/kg). Oral administration was achieved by oral gavage of a single 5 mg/kg dose. Blood samples (250 μL) were collected from the dosed rats at various times post-dosing (2 min, 5 min, 10 min, 20 min, 30 min, 1 hr, 2 hr, 3 hr, 4 hr, 5 hr, 6 hr) by retro-orbital sampling of the rats temporarily anesthetized with isoflurane. Blood samples were placed in tubes containing K2-EDTA and stored on ice until centrifuged. Within 30 minutes of collection, plasma was isolated by centrifugation. A 100-μL aliquot was removed, mixed with 200 μL of acetonitrile and stored at −20° C. until further analysis by LC-MS/MS using an Applied Bio-systems API 4000 mass spectrometer.
(§3) Samples were analyzed for the presence of the administered compound, the corresponding ketone (pentoxifylline and Compound 409) and the corresponding M5 metabolite. Samples (10 μL) were injected into a Zorbax SB-C8 (Rapid Resolution) column (2.1×30 mm, 3.5 μm). The initial mobile phase condition was 100% A (10 mM ammonium acetate in water) and 0% B (methanol) with a flow rate at 0.5 mL/min. Mobile phase B was allowed to reach 55% in 3 minutes and from 55% to 90% in 1 minute before ramping back to 0% in another minute. The overall run time was 5 minutes. For pentoxifylline and its M1 and M5 metabolites, the precursor/product ion pairs were set at m/z 281/193 (M1), m/z 279/181 (pentoxifylline), and m/z 267/221 (M5).
(§4) For Compound 435(S) and Compound 409 more than one ion pair was set up for to detect species that arose from loss of deuterium. […] This loss of deuterium appears to occur both in vivo and ex vivo by an unknown mechanism. The addition of acetonitrile to serum samples was used to stop any additional ex vivo deuterium loss prior to analysis. Typically, no more than 2 deuterium atoms were replaced by hydrogen. For Compound 435(S), there is a deuterium at the methinyl position which was lost upon oxidation to the keto-compound 409. Reduction of 409 to an M1 metabolite introduced a proton at the methinyl position. When serum from animals dosed with 435(S) were analyzed to quantitate administered compound and metabolites, compound species were included with one and two less side chain deuteriums in the total amounts (referred to hereinafter as the “−1D” and the “−2D” species). Thus, for Compound 435(S) and Compound 409 separate ion pairs were set up to detect the compound and its corresponding −1D and −2D species. For Compound 435(S) three ion pairs were detected: m/z 291/197, 290/197, and […]. For Compound 409 ion pairs of m/z 288/186, 287/186 and 286/186 were monitored. Inclusion of −1D and −2D species in the measurements of Compound 409 and Compound 435(S) more accurately quantitates the total active species and is reasonable based on what is known about the metabolism and activities of pentoxifylline and its M-1 metabolites. Increased plasma exposure to Compound 409 or any M-1 metabolites of 409 would be desirable. This includes the −1D and −2D species.
(§5) [drawing 78] which has no deuterium on its acid side chain, only one ion pair was used at m/z 271/225. The internal standard for the analysis was indiplon.

[2] = Pharmacokinetic study of pentoxifylline and Compound 435(S) in chimps after oral dosing (Example 39); assay type: in vivo; conditions: for % Difference in AUC0-12 Female (deuterated vs nondeuterated species) / % Difference in AUC0-12 Male (deuterated vs nondeuterated species): oral
Protocol: Pentoxifylline and Compound 435(S) were tested according to a protocol similar to the Oral Dosing protocol followed in Example 38, except that (a) the compounds were separately dissolved in water rather than saline; (b) the mixture of the two compounds was not sterile filtered; and (c) oral administration was achieved by oral gavage of a single 65 mg dose of each compound (13 mL total dosing solution).

[3] = Pharmacokinetic study of pentoxifylline and Compound 435(S) in chimps after oral dosing (Example 38); assay type: in vivo; conditions: for % Difference in AUC0-∞ Female (deuterated vs nondeuterated species) / % Difference in AUC0-∞ Male (deuterated vs nondeuterated species): oral; for AUC(0-inf): oral gavage 75 mg each of pentoxifylline and 435(S) as 1:1 mixture, species named in label measured in plasma
Protocol: Pentoxifylline and Compound 435(S) were separately dissolved in warm (65° C.) saline at a concentration at 10 mg/mL. A 1:1 mixture of the two compounds was then prepared containing a final concentration of 5 mg/mL of each compound and the mixture was then sterile filtered through a 0.2-μm filter.
Two chimps (one male and one female) were used in each of the oral and intravenous studies. Animals were fasted overnight prior to administration of compounds. All animals were sedated with ketamine (approximately 10 mg/kg) and/or telazol (approximately 5 mg/kg) prior to dosing. Intravenous administration was achieved by IV infusion of 75 mg of each compound (15 mL total dosing solution) over 10 minutes. Oral administration was achieved by oral gavage of a single 75 mg dose of each compound (15 mL total dosing solution). Blood samples (6 mL) were collected from the dosed chimps at various times prior to and after dosing. For intravenous administrations blood samples were collected at 0 min (preinfusion), 5 min, 9.5 min (immediately before the end of the infusion), then 6, 15, 30 and 45 min, and 1, 2, 4, 6, 8, 10 and 12 hr after the infusion is stopped. For oral administrations, blood samples were collected at 0 min (predose), 15 and 30 min, and 1, 1.5, 2, 4, 6, 8, 10 and 12 hr postdose.
Blood samples were placed in tubes containing sodium heparin, mixed and stored on ice until centrifuged. Within 30 minutes of collection, plasma was isolated by centrifuging the blood samples and removing an aliquot (200 μL) of the resulting plasma. Each 200-μL aliquot of plasma was mixed with 400 μL acetonitrile and stored at −70° C. until further analysis by LC-MS/MS using an Applied Bio-systems API 4000 mass spectrometer.
The analysis of all samples by LC-MS/MS was performed as described above for the rat plasma samples in Example 37.

[4] = Pharmacokinetic study in rats of (S)-M1 and Compound 435(S) after intravenous dosing (Example 37); assay type: in vivo, male Sprague-Dawley rats; conditions: for AUC(0-inf): male, Sprague-Dawley, rat
Protocol: as §1, §2, §3, §4, §5

[5] = male, Sprague-Dawley, rat, oral gavage single 5 mg/kg dose, 1:1 mixture of (S)-M1 and 435(S), species named in label measured in plasma, −1D and −2D species included
[6] = female chimp, oral gavage 65 mg each of pentoxifylline and 435(S) in water, species named in label measured in plasma, read-out: AUC0-12 Female
[7] = male chimp, oral gavage 65 mg each of pentoxifylline and 435(S) in water, species named in label measured in plasma, read-out: AUC0-12 Male
[8] = female chimp, read-out: AUC0-∞ Female
[9] = male chimp, read-out: AUC0-∞ Male
[10] = intravenous bolus single 5 mg/kg dose of 1:1 combination of (S)-M1 and 435(S), species named in label measured in plasma

## [2H]c1nc2c(c(=O)n(CCCC(=O)O)c(=O)n2C)n1C([2H])([2H])[2H] [Deuterated M5 (M5a)]
[1]; [5]
  AUC(0-inf): 1.92 ± 0.183 µg·h/mL
[1]; oral
  % Difference in AUC0-∞ (deuterated vs nondeuterated species): −36%
[2]; female chimp
  % Difference in AUC0-12 Female (deuterated vs nondeuterated species): −25%
[2]; [6]
  AUC(0-t): 0.609 µg·h/mL
[2]; male chimp
  % Difference in AUC0-12 Male (deuterated vs nondeuterated species): −18%
[2]; [7]
  AUC(0-t): 0.667 µg·h/mL
[3]; female chimp
  % Difference in AUC0-∞ Female (deuterated vs nondeuterated species): −68%
[3]; [8]
  AUC(0-inf): 0.606 µg·h/mL
[3]; male chimp
  % Difference in AUC0-∞ Male (deuterated vs nondeuterated species): −68%
[3]; [9]
  AUC(0-inf): 0.462 µg·h/mL
[4]; intravenous
  % Difference in AUC0-∞ (deuterated vs nondeuterated species): −15%
[4]; intravenous administration of Compound 435(S) vs (S)-M1
  Amount of M5a metabolite less than amount of M5 metabolite: 15%
[4]; [10]
  AUC(0-inf): 1.52 ± 0.53 µg·h/mL

## C[C@H](O)CCCCn1c(=O)c2c(ncn2C)n(C)c1=O [(S)-M1, reference compound]
[1]; oral administration, from AUC0-∞
  Ratio of active species (M1 alcohol + ketone) to M5 metabolite: 1.6
[1]; oral gavage single 5 mg/kg dose, 1:1 mixture of (S)-M1 and 435(S), species named in label measured in plasma
  Cmax: 1.57 ± 0.249 µg/mL
[1]; oral gavage single 5 mg/kg dose, 1:1 mixture of (S)-M1 and 435(S), species named in label measured in plasma, −1D and −2D species included
  AUC0-∞: 1.628 ± 0.272 µg·h/mL
[2]; female chimp, oral gavage 65 mg each of pentoxifylline and 435(S) in water, species named in label measured in plasma
  AUC0-12 Female: 0.088 µg·h/mL
[2]; male chimp, oral gavage 65 mg each of pentoxifylline and 435(S) in water, species named in label measured in plasma
  AUC0-12 Male: 0.075 µg·h/mL
[3]; in vivo, po, 75 mg
  AUC0-∞ Female: 0.301 µg·h/mL
  AUC0-∞ Male: 0.3 µg·h/mL
[4]; intravenous administration
  Ratio of active species to the corresponding M5 metabolite: 3.5
[4]; [10]
  AUC0-∞: 3.39 ± 0.302 µg·h/mL

## [2H]c1nc2c(c(=O)n(CCCC([2H])([2H])[C@@]([2H])(O)C([2H])([2H])[2H])c(=O)n2C)n1C([2H])([2H])[2H] [Compound 435(S), (S)-8-d1-1-(4,4,5,6,6,6-d6-5-Hydroxyhexyl)-3-methyl-7-(methyl-d3)-1H-purine-2,6(3H,7H)-dione]
[1]; male, Sprague-Dawley, rat, oral gavage single 5 mg/kg dose, 1:1 mixture of (S)-M1 and 435(S), species named in label measured in plasma, read-out: Cmax
  Cmax: 4.11 ± 0.964 µg/mL
[1]; [5]
  AUC(0-inf): 4.51 ± 1.02 µg·h/mL
[1]; oral
  % Difference in AUC0-∞ (deuterated vs nondeuterated species): +177%
  % Difference in Cmax (deuterated vs nondeuterated species): +162%
[2]; female chimp
  % Difference in AUC0-12 Female (deuterated vs nondeuterated species): +108%
[2]; [6]
  AUC(0-t): 0.183 µg·h/mL
[2]; male chimp
  % Difference in AUC0-12 Male (deuterated vs nondeuterated species): +185%
[2]; [7]
  AUC(0-t): 0.214 µg·h/mL
[3]; female chimp
  % Difference in AUC0-∞ Female (deuterated vs nondeuterated species): +123%
[3]; [8]
  AUC(0-inf): 0.672 µg·h/mL
[3]; male chimp
  % Difference in AUC0-∞ Male (deuterated vs nondeuterated species): +176%
[3]; [9]
  AUC(0-inf): 0.829 µg·h/mL
[4]; [10]
  AUC(0-inf): 7.13 ± 0.816 µg·h/mL

From US8263601B2, “Deuterium substituted xanthine derivatives” (CoNCERT Pharmaceuticals, Inc., priority 2009, dated 2012)
